In ChEMBL document CHEMBL1275506, “Expanded-spectrum beta-lactamase PER-1 in an environmental Aeromonas media isolate from Switzerland” (2008):
Converted amounts (≈) assume the structure as drawn.

Experiments:
Type in all cases: functional
Aeromonas sp. [1] = test: Antibacterial activity against Aeromonas sp. isolate A72 by Etest
Escherichia coli [2] = test: Antibacterial activity against Escherichia coli J53 harboring plasmid pAM carrying beta-lactamase PER-1 by Etest
Escherichia coli [3] = test: Antibacterial activity against Escherichia coli J53 by Etest
Aeromonas sp. [4] = test: Antibacterial activity against Aeromonas sp. isolate A72 by Etest in presence of clavulanic acid
Escherichia coli [5] = test: Antibacterial activity against Escherichia coli J53 harboring plasmid pAM carrying beta-lactamase PER-1 by Etest in presence of clavulanic acid
Escherichia coli [6] = test: Antibacterial activity against Escherichia coli J53 by Etest in presence of clavulanic acid

SMILES | MIC (Aeromonas sp. [1]) | MIC (Escherichia coli [2]) | MIC (Escherichia coli [3]) | MIC (Aeromonas sp. [4]) | MIC (Escherichia coli [5]) | MIC (Escherichia coli [6])
CO/N=C(\C(=O)N[C@@H]1C(=O)N2C(C(=O)[O-])=C(C[N+]3(C)CCCC3)CS[C@H]12)c1csc(N)n1 [CEFEPIME] | 4 mg/L (≈ 8.32 µM) | 8 mg/L (≈ 16.6 µM) | – | – | – | –
CC(C)(O/N=C(\C(=O)N[C@@H]1C(=O)N2C(C(=O)[O-])=C(C[n+]3ccccc3)CS[C@H]12)c1csc(N)n1)C(=O)O [CEFTAZIDIME] | > 256 mg/L | > 256 mg/L | 0.06 mg/L (≈ 0.11 µM) | – | – | –
C[C@@H](O)[C@H]1C(=O)N2C(C(=O)O)=C(SCCNC=N)C[C@H]12 [IMIPENEM ANHYDROUS] | 0.25 mg/L (≈ 0.835 µM) | 0.25 mg/L (≈ 0.835 µM) | – | – | – | –
CO[C@@]1(NC(=O)Cc2cccs2)C(=O)N2C(C(=O)O)=C(COC(N)=O)CS[C@@H]21 [CEFOXITIN] | 2 mg/L (≈ 4.68 µM) | 2 mg/L (≈ 4.68 µM) | 2 mg/L (≈ 4.68 µM) | – | – | –
CC(=O)OCC1=C(C(=O)O)N2C(=O)[C@@H](NC(=O)Cc3cccs3)[C@H]2SC1 [CEPHALOTHIN] | > 64 mg/L | > 64 mg/L | 8 mg/L (≈ 20.2 µM) | – | – | –
CC1(C)S[C@@H]2[C@H](NC(=O)[C@H](C(=O)O)c3ccsc3)C(=O)N2[C@H]1C(=O)O [TICARCILLIN] | > 256 mg/L | > 256 mg/L | 4 mg/L (≈ 10.4 µM) | 128 mg/L | 8 mg/L | 4 mg/L
CO/N=C(\C(=O)N[C@@H]1C(=O)N2C(C(=O)O)=C(COC(C)=O)CS[C@H]12)c1csc(N)n1 [CEFOTAXIME] | > 32 mg/L | > 32 mg/L | 0.06 mg/L (≈ 0.132 µM) | – | – | –
CC1(C)S[C@@H]2[C@H](NC(=O)[C@H](N)c3ccc(O)cc3)C(=O)N2[C@H]1C(=O)O [AMOXICILLIN] | > 256 mg/L | > 256 mg/L | 4 mg/L (≈ 10.9 µM) | 8 mg/L | 4 mg/L | 4 mg/L
